Test results: ChEMBL document CHEMBL3991950, “Imidazolidinedione derivatives” (2011)
Calls of active or inactive are those of the source.

Key:
[1] = biological target: T1, Voltage-gated potassium channel KCNC2 (Homo sapiens) (UniProt Q96PR1); assay: Modulation activity at human recombinant Kv3.2 expressed in CHOK1 cells assessed as potentiation of whole-cell currents by measuring activation time at 3.1 uM at -70 mV holding potential incubated for 3 mins by lonWorks Quattro system based electrophysiology assay (reference value: 7.1 ms)
T1 sequence (whole entry): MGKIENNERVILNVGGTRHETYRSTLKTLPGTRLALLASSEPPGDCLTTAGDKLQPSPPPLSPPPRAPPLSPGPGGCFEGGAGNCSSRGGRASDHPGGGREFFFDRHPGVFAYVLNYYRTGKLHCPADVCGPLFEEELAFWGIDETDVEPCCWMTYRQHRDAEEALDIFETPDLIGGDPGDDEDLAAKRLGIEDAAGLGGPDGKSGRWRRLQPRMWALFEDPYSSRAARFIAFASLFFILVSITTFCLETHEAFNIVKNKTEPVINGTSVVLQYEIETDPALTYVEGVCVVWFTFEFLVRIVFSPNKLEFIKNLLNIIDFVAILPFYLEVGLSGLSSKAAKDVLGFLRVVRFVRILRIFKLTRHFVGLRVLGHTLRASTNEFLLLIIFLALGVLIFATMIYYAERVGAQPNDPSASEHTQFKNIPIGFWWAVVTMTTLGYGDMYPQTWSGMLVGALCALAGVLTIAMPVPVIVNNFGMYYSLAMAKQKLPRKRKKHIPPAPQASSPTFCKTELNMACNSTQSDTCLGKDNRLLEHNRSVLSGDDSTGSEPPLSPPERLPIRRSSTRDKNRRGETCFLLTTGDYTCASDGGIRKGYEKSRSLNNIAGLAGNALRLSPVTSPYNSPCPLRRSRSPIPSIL

[2] = biological target: T1, Voltage-gated potassium channel KCNC2 (Homo sapiens); assay: Modulation activity at human recombinant Kv3.2 expressed in CHOK1 cells assessed as potentiation of whole-cell currents by measuring activation time at 12.5 uM at -70 mV holding potential incubated for 3 mins by lonWorks Quattro system based electrophysiology assay (reference value: 7.1 ms)
[3] = biological target: T1, Voltage-gated potassium channel KCNC2 (Homo sapiens); assay: Positive modulation activity at human recombinant Kv3.2 expressed in CHOK1 cells assessed as effect on activation time at -70 mV holding potential incubated for 3 mins by lonWorks Quattro system based electrophysiology assay (reference value: 7.1 ms); assay type: cell-based
Callithrix jacchus [4] = assay: Antipsychotic-like activity in common marmoset assessed as induction of increase in absolute power in delta band at 3 mg/kg, po measured between 30 and 120 mins by electroencephalography analysis; assay type: functional, organism-based
Callithrix jacchus [5] = assay: Antipsychotic-like activity in common marmoset assessed as induction of increase in theta band power at 3 mg/kg, po measured at 60 mins by electroencephalography analysis; assay type: functional, organism-based
Callithrix jacchus [6] = assay: Antipsychotic-like activity in common marmoset assessed as induction of increase in absolute power in delta band at 1 mg/kg, po measured at 30 mins by electroencephalography analysis; assay type: functional, organism-based
Callithrix jacchus [7] = assay: Antipsychotic-like activity in common marmoset assessed as induction of reduction in power in beta band at 1 mg/kg, po measured at 30 mins by electroencephalography analysis; assay type: functional, organism-based
Callithrix jacchus [8] = assay: Effect on absolute power in alpha band in common marmoset at 0.3 to 3 mg/kg, po by electroencephalography analysis; assay type: ADME, organism-based; details: in vivo
[9] = biological target: T1, Voltage-gated potassium channel KCNC2 (Homo sapiens); assay: Modulation activity at human recombinant Kv3.2 expressed in CHOK1 cells assessed as potentiation of whole-cell currents by measuring activation time at 0.4 uM at -70 mV holding potential incubated for 3 mins by lonWorks Quattro system based electrophysiology assay (reference value: 7.1 ms)
[10] = biological target: T1, Voltage-gated potassium channel KCNC2 (Homo sapiens); assay: Negative modulation activity at human recombinant Kv3.2 expressed in CHOK1 cells assessed as effect on activation time at -70 mV holding potential incubated for 3 mins by lonWorks Quattro system based electrophysiology assay; assay type: cell-based
Mus musculus [11] = assay: Reduction in amphetamine-induced hyperactivity in CD1 mouse assessed as reduction in amphetamine-induced increase in total distance travelled at 3 mg/kg, ip pretreated with compound 30 mins before amphetamine challenge and measured over 60 mins post amphetamine challenge; assay type: functional, organism-based
Mus musculus [12] = assay: Reduction in amphetamine-induced hyperactivity in CD1 mouse assessed as amphetamine-induced increase in total distance travelled at 3 mg/kg, ip pretreated with compound 30 mins before amphetamine challenge and measured over 60 mins post amphetamine challenge (reference value: 16304 +/- 3309 cm); assay type: functional
[13] = biological target: T1, Voltage-gated potassium channel KCNC2 (Homo sapiens); assay: Modulation activity at human recombinant Kv3.2 expressed in CHOK1 cells assessed as potentiation of whole-cell currents by measuring activation time at 0.2 uM at -70 mV holding potential incubated for 3 mins by lonWorks Quattro system based electrophysiology assay
[14] = biological target: T1, Voltage-gated potassium channel KCNC2 (Homo sapiens); assay: Modulation activity at human recombinant Kv3.2 expressed in CHOK1 cells assessed as potentiation of whole-cell currents at 6.3 uM at -70 mV holding potential incubated for 3 mins by lonWorks Quattro system based electrophysiology assay
[15] = biological target: T1, Voltage-gated potassium channel KCNC2 (Homo sapiens); assay: Modulation activity at human recombinant Kv3.2 expressed in CHOK1 cells assessed as potentiation of whole-cell currents at 25 uM at -70 mV holding potential incubated for 3 mins by lonWorks Quattro system based electrophysiology assay
[16] = biological target: T1, Voltage-gated potassium channel KCNC2 (Homo sapiens); assay: Modulation activity at human recombinant Kv3.2 expressed in CHOK1 cells assessed as potentiation of whole-cell currents by measuring activation time at 6.25 uM at -70 mV holding potential incubated for 3 mins by lonWorks Quattro system based electrophysiology assay (reference value: 7.1 ms)
Mus musculus [17] = species on record: Mus musculus; assay: (§1) Modulation activity at Kv3 channel-mediated firing activity of parvalbumin-positive interneurons isolated form somatosensory cortex of transgenic [CB6-Tg (Gad1-EGFP) G42Zjh/J] mouse assessed as reduction in 0.5 mM TEA-induced action potential half-width at 1 uM incubated for 1 hr at resting potential of -80 mV by electrophysiology assay
Mus musculus [18] = species on record: Mus musculus; assay: as §1, with “at 10” for “at 1”
[19] = biological target: T2, Voltage-gated potassium channel KCNC1 (Mus musculus) (UniProt P15388); assay: Modulation activity at Kv3.1 channel-mediated potassium currents in neurons isolated from medial nucleus of trapezoid body in CBA/Ca mouse assessed as reversal of TEA-induced reduction in voltage steps to +40 mV-evoked amplitude of outward high voltage-activated potassium currents at 10 uM at resting potential of -60 mV incubated for 5 mins by electrophysiology assay
T2 sequence (whole entry): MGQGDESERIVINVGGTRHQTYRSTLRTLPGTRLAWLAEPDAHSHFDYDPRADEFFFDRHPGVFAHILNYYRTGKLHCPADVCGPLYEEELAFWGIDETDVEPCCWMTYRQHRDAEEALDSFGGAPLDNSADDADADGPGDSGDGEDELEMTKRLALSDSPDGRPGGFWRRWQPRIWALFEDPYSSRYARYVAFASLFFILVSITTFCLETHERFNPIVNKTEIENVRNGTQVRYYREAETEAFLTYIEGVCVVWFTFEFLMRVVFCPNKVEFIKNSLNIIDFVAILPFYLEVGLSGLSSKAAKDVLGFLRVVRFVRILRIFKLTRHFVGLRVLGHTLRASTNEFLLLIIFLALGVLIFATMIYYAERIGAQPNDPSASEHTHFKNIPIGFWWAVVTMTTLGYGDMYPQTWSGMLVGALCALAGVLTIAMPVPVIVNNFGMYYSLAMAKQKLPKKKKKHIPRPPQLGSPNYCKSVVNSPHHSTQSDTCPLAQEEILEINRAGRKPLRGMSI

Rattus norvegicus [20] = assay: Increase in threshold for tonic hindlimb extensor seizures in CD rat model of electroshock seizure at 30 mg/kg, po relative to untreated control; assay type: functional
Rattus norvegicus [21] = assay: Increase in threshold for tonic hindlimb extensor seizures in CD rat model of electroshock seizure at 60 mg/kg, po relative to untreated control; assay type: functional
Mus musculus [22] = assay: Reduction in amphetamine-induced hyperactivity in CD1 mouse assessed as reduction in amphetamine-induced increase in total distance travelled at 30 mg/kg, po pretreated with compound 30 mins before amphetamine challenge and measured over 60 mins post amphetamine challenge; assay type: functional, organism-based
Mus musculus [23] = assay: Reduction in amphetamine-induced hyperactivity in CD1 mouse assessed as reduction in amphetamine-induced increase in total distance travelled at 60 mg/kg, po pretreated with compound 30 mins before amphetamine challenge and measured over 60 mins post amphetamine challenge; assay type: functional, organism-based
Mus musculus [24] = assay: Reduction in amphetamine-induced hyperactivity in CD1 mouse assessed as amphetamine-induced increase in total distance travelled at 10 mg/kg, po pretreated with compound 30 mins before amphetamine challenge and measured over 60 mins post amphetamine challenge (reference value: 16304 +/- 3309 cm); assay type: functional
Callithrix jacchus [25] = assay: Sedative or hypnotic effect in marmoset assessed as reduction in number of animal jumps at 1 and 3 mg/kg, po dosed 2 hrs before test and measured over 2 mins post dose; assay type: functional, organism-based
Callithrix jacchus [26] = assay: Effect on animal postures in marmoset at 1 and 3 mg/kg, po dosed 2 hrs before test and measured over 2 mins post dose; assay type: ADME, organism-based; details: in vivo
Rattus norvegicus [27] = assay: Increase in threshold for tonic hindlimb extensor seizures in CD rat model of electroshock seizure at 300 mg/kg, po relative to untreated control; assay type: functional
[28] = biological target: T1, Voltage-gated potassium channel KCNC2 (Homo sapiens); assay: Modulation activity at human recombinant Kv3.2 expressed in CHOK1 cells assessed as potentiation of whole-cell currents by measuring activation time at 0.8 uM at -70 mV holding potential incubated for 3 mins by lonWorks Quattro system based electrophysiology assay (reference value: 7.1 ms)

In the case of `CCc1cc(Oc2ccc(N3C(=O)N[C@H](CC)C3=O)cn2)ccc1C#N`, the TIME [1] was 2.28e-06 h.
`CC[C@@]1(C)NC(=O)N(c2ccc(Oc3ccc(C)c(OC)c3)nc2)C1=O` was tested, and the TIME [2] was 2.03e-06 h, the Activity [3] was “Active” and the Activity (Callithrix jacchus [4]) was “Active”. For the same compound, the Activity (Callithrix jacchus [5]) was “Active”, the Activity (Callithrix jacchus [6]) was “Active” and the Activity (Callithrix jacchus [7]) was “Active”. The Activity (Callithrix jacchus [8]) was “Non-Toxic”.
`CC1(C)NC(=O)N(c2ccc(Oc3cccc4c3C3(CC3)CO4)nc2)C1=O` was tested, and the TIME [9] was 5.36e-06 h and the inhibition [10] was “Active”.
In the case of `CC[C@H]1NC(=O)N(c2ccc(Oc3ccc(C#N)cc3C3CC3)nc2)C1=O`, the TIME [1] was 3.61e-06 h and the Activity [3] was “Active”.
`CC[C@H]1NC(=O)N(c2ccc(Oc3ccc(C#N)c(OC(C)C)c3)nc2)C1=O` was tested, and the TIME [1] was 2.69e-06 h.
`CN1CCN(C2=Nc3cc(Cl)ccc3Nc3ccccc32)CC1` [CLOZAPINE] was tested, and the Activity (Mus musculus [11]) was “Active” and the Activity (Mus musculus [12]) was 932 cm.
`CC[C@H]1NC(=O)N(c2ccc(Oc3ccc(C#N)cc3C(C)(C)C)nc2)C1=O` was tested, and the TIME [13] was 6.39e-06 h and the inhibition [10] was “Active”.
`CC[C@H]1NC(=O)N(c2ccc(Oc3ccc(C#N)c(C4CC4)c3)nc2)C1=O` was tested, and the TIME [1] was 2.11e-06 h and the Activity [3] was “Active”.
With `CC[C@H]1NC(=O)N(c2ccc(Oc3ccc(C)c(OC)c3)nc2)C1=O` the Activity [14] was “Active”, the Activity [15] was “Active” and the TIME [16] was 2.75e-06 h. The Activity [3] was “Active”, the inhibition (Mus musculus [17]) was 24% and the inhibition (Mus musculus [18]) was 36%. The Activity [19] was “Active”, the Activity (Rattus norvegicus [20]) was 91% and the Activity (Rattus norvegicus [21]) was 218%. For the same compound, the Activity (Mus musculus [22]) was “Active”, the Activity (Mus musculus [23]) was “Active” and the Activity (Mus musculus [24]) was 15267 cm. The Activity (Callithrix jacchus [25]) was “Active” and the Activity (Callithrix jacchus [26]) was “Non-Toxic”.
In the case of `CC[C@H]1NC(=O)N(c2ccc(Oc3ccc(C#N)c(OC(F)(F)F)c3)nc2)C1=O`, the TIME [1] was 2.89e-06 h.
Work on `CCCC(CCC)C(=O)[O-].[Na+]` [VALPROATE SODIUM] yielded an Activity (Rattus norvegicus [27]) of 258%.
`CC[C@H]1NC(=O)N(c2ccc(Oc3ccc(C#N)c(C(C)C)c3)nc2)C1=O` was tested, and the TIME [28] was 2.56e-06 h and the Activity [3] was “Active”.
